Data set [1] deals with Mus musculus. Put plainly: Toxicity in Mus musculus BALB/c (mouse) assessed as mortality at 50 to 200 mg/kg, po after 72 hr. The conditions noted are these: in vivo. The data set is classed as organism-based. Set-up: dose 50-200 mg/kg, route oral.
Data set [2] relates to Mus musculus. Briefly: Anti-inflammatory activity in Mus musculus BALB/c (mouse) assessed as inhibition of carrageenan-induced paw swelling at 10 mg/kg, po administered 1 hr followed by carrageenan challenge measured at 180 min relative to control. It counts as functional. A general note: The carrageenan paw model is a standard test of acute inflammation.
The test system of data set [3] is Mus musculus. Briefly: Toxicity in Mus musculus BALB/c (mouse) assessed as behavioral changes at 50 to 200 mg/kg, po after 72 hr. Set-up: dose 50-200 mg/kg, route oral. It counts as organism-based. The conditions noted are these: in vivo.
Data set [4] relates to Mus musculus. Put plainly: Anti-inflammatory activity in Mus musculus BALB/c (mouse) assessed as inhibition of carrageenan-induced paw swelling at 10 mg/kg, po administered 1 hr followed by carrageenan challenge measured at 270 min relative to control. The data set is classed as functional.
The subject of data set [5] is Mus musculus. Briefly: Anti-inflammatory activity in Mus musculus BALB/c (mouse) assessed as inhibition of carrageenan-induced paw swelling at 10 mg/kg, po administered 1 hr followed by carrageenan challenge measured at 90 min relative to control. The data set is classed as functional.
Data set [6] has as its system Mus musculus. Put plainly: Anti-inflammatory activity in Mus musculus BALB/c (mouse) assessed as inhibition of carrageenan-induced paw swelling at 10 mg/kg, po administered 1 hr followed by carrageenan challenge measured at 360 min relative to control. It counts as functional.
The test system of data set [7] is Mus musculus. Briefly: Anti-inflammatory activity in Mus musculus BALB/c (mouse) assessed as inhibition of carrageenan-induced paw swelling at 200 mg/kg, po administered 1 hr followed by carrageenan challenge measured at 270 min relative to control. The data set is classed as functional.
Data set [8] relates to Mus musculus. Briefly: Anti-inflammatory activity in Mus musculus BALB/c (mouse) assessed as carrageenan-induced paw swelling at 100 mg/kg, po administered 1 hr followed by carrageenan challenge measured at 180 min (reference value: 52 +/- 4.6 x 10^-2 mm). The data set is classed as functional.
Data set [9] relates to Mus musculus. Put plainly: Anti-inflammatory activity in Mus musculus BALB/c (mouse) assessed as carrageenan-induced paw swelling at 100 mg/kg, po administered 1 hr followed by carrageenan challenge measured at 360 min (reference value: 105 +/- 4.5 x 10^-2 mm). The data set is classed as functional.
The subject of data set [10] is Mus musculus. Briefly: Analgesic activity in Mus musculus BALB/c (mouse) assessed as inhibition of acetic acid-induced writhing at 100 mg/kg, po administered 1 hr followed by acetic acid challenge measured for 10 min. The data set is classed as functional. On the technique in general: Writhing tests count abdominal constrictions after an irritant is injected.
Data set [11] relates to Mus musculus. Briefly: Anti-inflammatory activity in Mus musculus BALB/c (mouse) assessed as carrageenan-induced paw swelling at 200 mg/kg, po administered 1 hr followed by carrageenan challenge measured at 90 min (reference value: 39 +/- 5.6 x 10^-2 mm). It counts as functional.
Data set [12] relates to Mus musculus. Briefly: Antioxidant activity in Mus musculus BALB/c (mouse) stomach assessed as TBARS level at 100 mg/kg, po (reference value: 80.4 +/- 5.4 nmol/g ). It counts as functional.
Data set [13] deals with Mus musculus. Briefly: Anti-inflammatory activity in Mus musculus BALB/c (mouse) assessed as carrageenan-induced paw swelling at 100 mg/kg, po administered 1 hr followed by carrageenan challenge measured at 270 min (reference value: 78 +/- 8.4 x 10^-2 mm). The data set is classed as functional.
Data set [14] deals with Mus musculus. Put plainly: Anti-inflammatory activity in Mus musculus BALB/c (mouse) assessed as carrageenan-induced paw swelling at 50 mg/kg, po administered 1 hr followed by carrageenan challenge measured at 180 min (reference value: 52 +/- 4.6 x 10^-2 mm). The data set is classed as functional.
The test system of data set [15] is Mus musculus. Put plainly: Anti-inflammatory activity in Mus musculus BALB/c (mouse) assessed as carrageenan-induced paw swelling at 50 mg/kg, po administered 1 hr followed by carrageenan challenge measured at 270 min (reference value: 78 +/- 8.4 x 10^-2 mm). It counts as functional.
Data set [16] relates to Mus musculus. Briefly: Anti-inflammatory activity in Mus musculus BALB/c (mouse) assessed as carrageenan-induced paw swelling at 50 mg/kg, po administered 1 hr followed by carrageenan challenge measured at 90 min (reference value: 39 +/- 5.6 x 10^-2 mm). It counts as functional.
In data set [17] the test system is Mus musculus. Put plainly: Anti-inflammatory activity in Mus musculus BALB/c (mouse) assessed as inhibition of carrageenan-induced paw swelling at 100 mg/kg, po administered 1 hr followed by carrageenan challenge measured at 360 min relative to control. It counts as functional.
Data set [18] deals with Mus musculus. Put plainly: Anti-inflammatory activity in Mus musculus BALB/c (mouse) assessed as inhibition of carrageenan-induced paw swelling at 50 mg/kg, po administered 1 hr followed by carrageenan challenge measured at 180 min relative to control. It counts as functional.
Data set [19] relates to Mus musculus. Put plainly: Anti-inflammatory activity in Mus musculus BALB/c (mouse) assessed as inhibition of carrageenan-induced paw swelling at 100 mg/kg, po administered 1 hr followed by carrageenan challenge measured at 270 min relative to control. It counts as functional.
The subject of data set [20] is Mus musculus. Put plainly: Anti-inflammatory activity in Mus musculus BALB/c (mouse) assessed as inhibition of carrageenan-induced paw swelling at 100 mg/kg, po administered 1 hr followed by carrageenan challenge measured at 180 min relative to control. The data set is classed as functional.
Data set [21] has as its system Mus musculus. Briefly: Anti-inflammatory activity in Mus musculus BALB/c (mouse) assessed as inhibition of carrageenan-induced paw swelling at 50 mg/kg, po administered 1 hr followed by carrageenan challenge measured at 90 min relative to control. It counts as functional.
For data set [22], the system named is Mus musculus. Briefly: Anti-inflammatory activity in Mus musculus BALB/c (mouse) assessed as carrageenan-induced paw swelling at 100 mg/kg, po administered 1 hr followed by carrageenan challenge measured at 90 min (reference value: 39 +/- 5.6 x 10^-2 mm). The data set is classed as functional.
In data set [23] the test system is Mus musculus. Put plainly: Anti-inflammatory activity in Mus musculus BALB/c (mouse) assessed as carrageenan-induced paw swelling at 200 mg/kg, po administered 1 hr followed by carrageenan challenge measured at 270 min (reference value: 78 +/- 8.4 x 10^-2 mm). The data set is classed as functional.
Data set [24] deals with Mus musculus. Briefly: Anti-inflammatory activity in Mus musculus BALB/c (mouse) assessed as carrageenan-induced paw swelling at 50 mg/kg, po administered 1 hr followed by carrageenan challenge measured at 360 min (reference value: 105 +/- 4.5 x 10^-2 mm). It counts as functional.
The subject of data set [25] is Mus musculus. Put plainly: Anti-inflammatory activity in Mus musculus BALB/c (mouse) assessed as inhibition of carrageenan-induced paw swelling at 200 mg/kg, po administered 1 hr followed by carrageenan challenge measured at 180 min relative to control. The data set is classed as functional.
Data set [26] relates to Mus musculus. Put plainly: Anti-inflammatory activity in Mus musculus BALB/c (mouse) assessed as carrageenan-induced paw swelling at 200 mg/kg, po administered 1 hr followed by carrageenan challenge measured at 180 min (reference value: 52 +/- 4.6 x 10^-2 mm). It counts as functional.
The subject of data set [27] is Mus musculus. Briefly: Anti-inflammatory activity in Mus musculus BALB/c (mouse) assessed as carrageenan-induced paw swelling at 200 mg/kg, po administered 1 hr followed by carrageenan challenge measured at 360 min (reference value: 105 +/- 4.5 x 10^-2 mm). It counts as functional.
Data set [28] concerns Mus musculus. Briefly: Anti-inflammatory activity in Mus musculus BALB/c (mouse) assessed as inhibition of carrageenan-induced paw swelling at 100 mg/kg, po administered 1 hr followed by carrageenan challenge measured at 90 min relative to control. The data set is classed as functional.
Data set [29] relates to Mus musculus. Briefly: Anti-inflammatory activity in Mus musculus BALB/c (mouse) assessed as inhibition of carrageenan-induced paw swelling at 50 mg/kg, po administered 1 hr followed by carrageenan challenge measured at 360 min relative to control. The data set is classed as functional.
Data set [30] relates to Mus musculus. Put plainly: Anti-inflammatory activity in Mus musculus BALB/c (mouse) assessed as inhibition of carrageenan-induced paw swelling at 200 mg/kg, po administered 1 hr followed by carrageenan challenge measured at 360 min relative to control. The data set is classed as functional.
Data set [31] relates to Mus musculus. Put plainly: Anti-inflammatory activity in Mus musculus BALB/c (mouse) assessed as inhibition of carrageenan-induced paw swelling at 200 mg/kg, po administered 1 hr followed by carrageenan challenge measured at 90 min relative to control. It counts as functional.

Each structure is given as a SMILES string.

With `COc1ccc2c(c1)c(CC(=O)O)c(C)n2C(=O)c1ccc(Cl)cc1` [INDOMETHACIN], the Activity entry with Mus musculus [1] and in the data set on Mus musculus [3] was “Non-toxic” in each case. Besides, the inhibition in vivo (in general, the percentage by which the read-out fell short of the control) at 10 mg/kg in the data set on Mus musculus [2] is 56.7%; in the data set on Mus musculus [4], 34.6%; in the data set with Mus musculus [5], 6.9%; with Mus musculus [6], 26.7%.
`CCOC(=O)c1sc2nc(CCc3cc(OC)c(OC)c(OC)c3)nn2c1C`: the inhibition in vivo at 200 mg/kg was 21.9% in the data set with Mus musculus [7] and 25.2% with Mus musculus [25]. Also, the Activity is recorded as 37 ×10⁻² mm with Mus musculus [8]; 83.8 ×10⁻² mm in the data set on Mus musculus [9]; 32.4 ×10⁻² mm in the data set on Mus musculus [11]; “Non-toxic” in the data set with Mus musculus [1]; “Non-toxic” in the data set on Mus musculus [3]; 109.1 nmol/g in the data set with Mus musculus [12]. The Activity with Mus musculus [13] came to 63.4 ×10⁻² mm; in the data set with Mus musculus [14], 29 ×10⁻² mm; in the data set with Mus musculus [15], 73.8 ×10⁻² mm; with Mus musculus [16] it was 19.5 ×10⁻² mm; in the data set on Mus musculus [22], 34.5 ×10⁻² mm; with Mus musculus [23], 60.9 ×10⁻² mm. The Activity worked out at 101.4 ×10⁻² mm in the data set on Mus musculus [24], 38.9 ×10⁻² mm in the data set with Mus musculus [26] and 92.9 ×10⁻² mm in the data set with Mus musculus [27]. For the same compound, the inhibition in vivo at 100 mg/kg in the data set on Mus musculus [10] is 85.9%; in the data set with Mus musculus [17], 20.2%; with Mus musculus [19], 18.7%; in the data set on Mus musculus [20], 28.8%. Further, the inhibition in vivo at 50 mg/kg in the data set with Mus musculus [18] was 44.2%; in the data set on Mus musculus [21], 50%.
For `COc1cc(CCC2=NC(=S)N=N2)cc(OC)c1OC`, the Activity in the data set on Mus musculus [8] was 30.8 ×10⁻² mm; with Mus musculus [9] it was 65.1 ×10⁻² mm; in the data set with Mus musculus [11] it was 39.7 ×10⁻² mm; in the data set with Mus musculus [1], “Non-toxic”; with Mus musculus [3], “Non-toxic”; in the data set with Mus musculus [12] it was 79.1 nmol/g. The Activity in the data set with Mus musculus [13] was determined as 37.3 ×10⁻² mm; with Mus musculus [14] it was 48.2 ×10⁻² mm; in the data set with Mus musculus [15], 74.5 ×10⁻² mm; in the data set with Mus musculus [16] it was 52.6 ×10⁻² mm; in the data set with Mus musculus [22], 28 ×10⁻² mm; with Mus musculus [23] it was 70.3 ×10⁻² mm. Further, the Activity is given as 84.1 ×10⁻² mm with Mus musculus [24], 50.5 ×10⁻² mm with Mus musculus [26] and 106.7 ×10⁻² mm in the data set with Mus musculus [27]. The inhibition in vivo at 100 mg/kg amounted to 28.2% in the data set with Mus musculus [28], 38% in the data set with Mus musculus [17], 52.2% in the data set on Mus musculus [19] and 40.8% in the data set on Mus musculus [20]. In the data set with Mus musculus [29], the inhibition in vivo at 50 mg/kg worked out at 19.9%.
For `CCOC(=O)Cc1csc2nc(-c3ccc(Cl)cc3)nn12`, the inhibition in vivo at 200 mg/kg in the data set on Mus musculus [7] came to 24.9%; with Mus musculus [30], 17.4%; with Mus musculus [31], 25.4%; with Mus musculus [25], 28.5%. Besides, the Activity is listed as 52.5 ×10⁻² mm in the data set on Mus musculus [8]; 70 ×10⁻² mm in the data set with Mus musculus [9]; 29.1 ×10⁻² mm in the data set with Mus musculus [11]; “Non-toxic” with Mus musculus [1]; “Non-toxic” in the data set on Mus musculus [3]; 157.2 nmol/g with Mus musculus [12]. The Activity is given as 82.5 ×10⁻² mm in the data set on Mus musculus [13]; 66.1 ×10⁻² mm in the data set on Mus musculus [14]; 88.5 ×10⁻² mm in the data set with Mus musculus [15]; 61 ×10⁻² mm in the data set with Mus musculus [16]; 43.7 ×10⁻² mm in the data set on Mus musculus [22]; 58.6 ×10⁻² mm in the data set on Mus musculus [23]. The Activity is listed as 105 ×10⁻² mm in the data set with Mus musculus [24], 37.2 ×10⁻² mm in the data set on Mus musculus [26] and 86.7 ×10⁻² mm in the data set with Mus musculus [27]. Further, the inhibition in vivo at 100 mg/kg stood at 38.5% in the data set with Mus musculus [10] and 33.3% with Mus musculus [17].
